From ChEMBL document CHEMBL4364293, “Design, Synthesis, and Structure-Activity Relationship of 7-Propanamide Benzoxaboroles as Potent Anticancer Agents” (J Med Chem, 2019)
One block for each compound: values may come before it. The source made the active and inactive calls. The calls are words filed in the database; no cut-off is given here.

Columns and labels:
HCT-116 = experiment: Antiproliferative activity against human HCT116 cells after 72 hrs by MTT assay; format: functional, cell-based; conditions: HCT-116, 72 h
[1] = Selectivity ratio, ratio of IC50 for human WI38 cells to IC50 for human SKOV3 cells; format: toxicity; conditions: WI38 cells versus SKOV3 cells, read-out: Ratio IC50
WI-38 = experiment: Cytotoxicity against human WI38 cells after 72 hrs by MTT assay; format: cell-based; conditions: WI-38, 72 h
SK-OV-3 [2] = experiment: Antiproliferative activity against human SKOV3 cells after 72 hrs by MTT assay; format: functional, cell-based; conditions: SK-OV-3, 72 h
MDA-MB-231 = experiment: Antiproliferative activity against human MDA-MB-231 cells after 72 hrs by MTT assay; format: functional, cell-based; conditions: MDA-MB-231, 72 h
SW480 [3] = experiment: Antitumor activity against human SW480 cells xenografted in ip dosed BALB/c mouse assessed as reduction in tumor weight administered once daily for 33 days and measured every 3 days during compound dosing; format: functional, organism-based
SK-OV-3 [4] = experiment: Inhibition of colony formation in human SKOV3 cells at 0.0625 to 1 uM supplemented with fresh medium containing compound every 72 hrs for 2 weeks by crystal violet staining based assay; format: functional, cell-based
[5] = Apparent permeability across basolateral to apical side in human Caco2 cells; format: ADME, cell-based; conditions: Caco-2
SK-OV-3 [6] = experiment: Induction of apoptosis in human SKOV3 cells assessed as viable cells at 1 uM after 48 hrs by Annexin V-FITC/propidium iodide staining based FACS analysis (reference value: 91%); format: functional; conditions: SK-OV-3, 48 h, read-out: Activity
[7] = Apparent permeability across apical to basolateral side in human Caco2 cells; format: ADME, cell-based; conditions: Caco-2
[8] = AUC infinity in Sprague-Dawley rat at 2 mg/kg, iv by non-compartmental analysis; format: ADME, organism-based; parameters: dose 2 mg/kg, time infinity, route intravenous; conditions: in vivo
SK-OV-3 [9] = experiment: Induction of apoptosis in human SKOV3 cells assessed as early apoptotic cells at 3 uM after 48 hrs by Annexin V-FITC/propidium iodide staining based FACS analysis (reference value: 1.95%); format: functional
SK-OV-3 [10] = experiment: Induction of apoptosis in human SKOV3 cells assessed as early apoptotic cells at 10 uM after 48 hrs by Annexin V-FITC/propidium iodide staining based FACS analysis (reference value: 1.95%); format: functional
NCI-H460 [11] = experiment: Induction of apoptosis in human NCI-H460 cells assessed as increase in cleaved caspase-3 expression at low concentration after 48 hrs by Western blot analysis; format: functional, cell-based
SW480 [12] = experiment: Antitumor activity against human SW480 cells xenografted in ip dosed BALB/c mouse assessed as reduction in tumor volume administered once daily for 33 days and measured every 3 days during compound dosing; format: functional, organism-based
[13] = Cmax in Sprague-Dawley rat at 10 mg/kg, po by non-compartmental analysis; format: ADME, organism-based; parameters: dose 10 mg/kg, route oral; conditions: in vivo
NCI-H460 [14] = experiment: Induction of apoptosis in human NCI-H460 cells assessed as increase in cleaved caspase-9 expression at low concentration after 48 hrs by Western blot analysis; format: functional, cell-based
[15] = AUC infinity in Sprague-Dawley rat at 10 mg/kg, po by non-compartmental analysis; format: ADME, organism-based; parameters: dose 10 mg/kg, time infinity, route oral; conditions: in vivo
[16] = Tmax in Sprague-Dawley rat at 10 mg/kg, po by non-compartmental analysis; format: ADME, organism-based; conditions: in vivo
SK-OV-3 [17] = experiment: Induction of apoptosis in human SKOV3 cells assessed as necrotic cells at 3 uM after 48 hrs by Annexin V-FITC/propidium iodide staining based FACS analysis (reference value: 1.06%); format: functional
SK-OV-3 [18] = experiment: Induction of apoptosis in human SKOV3 cells assessed as early apoptotic cells at 1 uM after 48 hrs by Annexin V-FITC/propidium iodide staining based FACS analysis (reference value: 1.95%); format: functional
SK-OV-3 [19] = experiment: Induction of apoptosis in human SKOV3 cells assessed as necrotic cells at 1 uM after 48 hrs by Annexin V-FITC/propidium iodide staining based FACS analysis (reference value: 1.06%); format: functional
SK-OV-3 [20] = experiment: Induction of apoptosis in human SKOV3 cells after 48 hrs by Annexin V-FITC/propidium iodide staining based FACS analysis (reference value: 1.06%); format: functional, cell-based
[21] = Efflux ratio of apparent permeability from basolateral to apical over apical to basolateral side in human Caco2 cells; format: ADME, cell-based; conditions: Caco-2
SK-OV-3 [22] = experiment: Induction of apoptosis in human SKOV3 cells assessed as late apoptotic cells at 1 uM after 48 hrs by Annexin V-FITC/propidium iodide staining based FACS analysis (reference value: 5.97%); format: functional
[23] = Half-life in Sprague-Dawley rat at 10 mg/kg, po by non-compartmental analysis; format: ADME, organism-based; conditions: in vivo
SK-OV-3 [24] = experiment: Induction of apoptosis in human SKOV3 cells assessed as late apoptotic cells at 10 uM after 48 hrs by Annexin V-FITC/propidium iodide staining based FACS analysis (reference value: 5.97%); format: functional
SK-OV-3 [25] = experiment: Induction of apoptosis in human SKOV3 cells assessed as necrotic cells at 10 uM after 48 hrs by Annexin V-FITC/propidium iodide staining based FACS analysis (reference value: 1.06%); format: functional
SK-OV-3 [26] = experiment: Induction of apoptosis in human SKOV3 cells assessed as viable cells at 3 uM after 48 hrs by Annexin V-FITC/propidium iodide staining based FACS analysis (reference value: 91%); format: functional; conditions: SK-OV-3, 48 h, read-out: Activity
[27] = Half-life in Sprague-Dawley rat at 2 mg/kg, iv by non-compartmental analysis; format: ADME, organism-based; conditions: in vivo
SK-OV-3 [28] = experiment: Induction of apoptosis in human SKOV3 cells assessed as viable cells at 10 uM after 48 hrs by Annexin V-FITC/propidium iodide staining based FACS analysis (reference value: 91%); format: functional; conditions: SK-OV-3, 48 h, read-out: Activity
[29] = Oral bioavailability in Sprague-Dawley rat at 10 mg/kg by non-compartmental analysis; format: ADME, organism-based; conditions: in vivo
[30] = Volume of distribution at steady state in Sprague-Dawley rat at 2 mg/kg, iv by non-compartmental analysis; format: ADME, organism-based; conditions: in vivo, read-out: Vdss
[31] = Clearance in Sprague-Dawley rat at 2 mg/kg, iv by non-compartmental analysis; format: ADME, organism-based; conditions: in vivo
SK-OV-3 [32] = experiment: Induction of apoptosis in human SKOV3 cells assessed as late apoptotic cells at 3 uM after 48 hrs by Annexin V-FITC/propidium iodide staining based FACS analysis (reference value: 5.97%); format: functional
[33] = Toxicity in BALB/c mouse xenografted with human SW480 cells assessed as reduction in body weight at 2 to 10 mg/kg, ip administered once daily for 33 days and measured every 3 days during compound dosing; format: organism-based; conditions: in vivo
[34] = target: Leucine--tRNA ligase, cytoplasmic (Homo sapiens) (UniProt Q9P2J5); experiment: Inhibition of human leucyl-tRNA synthetase
NCI-H460 [35] = experiment: Induction of apoptosis in human NCI-H460 cells assessed as increase in cleaved PARP expression at low concentration after 48 hrs by Western blot analysis; format: functional, cell-based

Sequence of Leucine--tRNA ligase, cytoplasmic (Homo sapiens) (Q9P2J5 whole entry, looked up): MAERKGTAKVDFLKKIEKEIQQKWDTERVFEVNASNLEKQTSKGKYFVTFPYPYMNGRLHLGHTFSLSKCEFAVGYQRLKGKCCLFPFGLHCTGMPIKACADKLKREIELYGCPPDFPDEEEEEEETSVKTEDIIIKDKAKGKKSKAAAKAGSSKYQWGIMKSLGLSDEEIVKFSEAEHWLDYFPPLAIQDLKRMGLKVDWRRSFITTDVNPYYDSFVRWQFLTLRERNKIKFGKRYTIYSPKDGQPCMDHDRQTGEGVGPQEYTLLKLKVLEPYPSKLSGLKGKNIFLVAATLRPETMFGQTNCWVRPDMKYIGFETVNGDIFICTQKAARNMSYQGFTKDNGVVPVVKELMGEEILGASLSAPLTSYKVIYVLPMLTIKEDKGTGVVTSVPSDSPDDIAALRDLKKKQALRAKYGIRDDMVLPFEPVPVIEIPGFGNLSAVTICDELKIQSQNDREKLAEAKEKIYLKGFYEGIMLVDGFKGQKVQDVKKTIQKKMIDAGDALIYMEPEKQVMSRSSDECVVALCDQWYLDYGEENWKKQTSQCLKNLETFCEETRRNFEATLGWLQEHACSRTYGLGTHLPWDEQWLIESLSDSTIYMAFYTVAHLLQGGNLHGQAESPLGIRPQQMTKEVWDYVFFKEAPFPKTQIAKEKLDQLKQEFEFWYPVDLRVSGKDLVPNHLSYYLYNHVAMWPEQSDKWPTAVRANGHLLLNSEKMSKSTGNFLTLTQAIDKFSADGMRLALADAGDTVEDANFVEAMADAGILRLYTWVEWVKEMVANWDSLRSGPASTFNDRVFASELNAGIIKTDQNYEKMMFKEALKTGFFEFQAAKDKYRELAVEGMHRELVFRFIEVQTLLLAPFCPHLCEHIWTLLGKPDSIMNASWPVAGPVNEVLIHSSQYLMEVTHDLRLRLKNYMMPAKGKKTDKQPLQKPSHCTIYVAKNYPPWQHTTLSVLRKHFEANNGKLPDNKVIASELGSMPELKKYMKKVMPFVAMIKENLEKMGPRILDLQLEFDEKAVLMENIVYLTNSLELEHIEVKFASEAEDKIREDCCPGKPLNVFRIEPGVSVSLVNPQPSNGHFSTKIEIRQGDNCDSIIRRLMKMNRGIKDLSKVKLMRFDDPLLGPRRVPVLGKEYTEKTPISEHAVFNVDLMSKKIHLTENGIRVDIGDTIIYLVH

- IC50 (HCT-116): 350 nM
- IC50 (SK-OV-3 [2]): 200 nM
- IC50 (MDA-MB-231): 230 nM
Compound: O=C(CCc1cccc2c1B(O)OC2)Nc1ccccc1
- selectivity ratio [1]: 150
- IC50 (WI-38): 30000 nM

- IC50 (HCT-116): 3600 nM
- IC50 (SK-OV-3 [2]): 980 nM
- IC50 (MDA-MB-231): 1600 nM
Compound: C#Cc1cccc(NC(=O)CCc2cccc3c2B(O)OC3)c1
- IC50 (WI-38): > 100000 nM

- IC50 (HCT-116): 1600 nM
- IC50 (SK-OV-3 [2]): 510 nM
- IC50 (MDA-MB-231): 1600 nM
Compound: CC(C)c1cccc(NC(=O)CCc2cccc3c2B(O)OC3)c1
- IC50 (WI-38): 22000 nM

- IC50 (HCT-116): 13000 nM
- IC50 (SK-OV-3 [2]): 48000 nM
- IC50 (MDA-MB-231): 8800 nM
Compound: O=C(CCc1cccc2c1B(O)OC2)Nc1ccc(-c2ccccc2)cc1
- IC50 (WI-38): 32000 nM

- IC50 (HCT-116): 1700 nM
- IC50 (SK-OV-3 [2]): 1400 nM
- IC50 (MDA-MB-231): 1800 nM
Compound: O=C(CCc1cccc2c1B(O)OC2)Nc1ccc2ccccc2c1
- IC50 (WI-38): > 100000 nM

- IC50 (HCT-116): 45000 nM
- IC50 (SK-OV-3 [2]): 6300 nM
- IC50 (MDA-MB-231): 6600 nM
Compound: C#Cc1ccc(NC(=O)CCc2cccc3c2B(O)OC3)cc1
- IC50 (WI-38): > 100000 nM

More lines, now with the values behind:

Compound: O=C(CCc1cccc2c1B(O)OC2)Nc1cccc(-c2ccc(F)cc2)c1
- IC50 (HCT-116): 550 nM
- selectivity ratio [1]: 44
- IC50 (WI-38): 4100 nM
- IC50 (SK-OV-3 [2]): 93 nM
- IC50 (MDA-MB-231): 250 nM

Compound: COc1cccc(-c2cccc(NC(=O)CCc3cccc4c3B(O)OC4)c2)c1
- IC50 (HCT-116): 260 nM
- Activity (SW480 [3]): Dose-dependent effect
- inhibition (SK-OV-3 [4]): Active
- Papp B→A [5]: 26.5 ×10⁻⁶ cm/s
- viability at 1 µM (SK-OV-3 [6]): 71%
- Papp A→B [7]: 19.5 ×10⁻⁶ cm/s
- AUC(0-inf) [8]: 551 ng·h/mL
- Activity (SK-OV-3 [9]): 14.5%
- selectivity ratio [1]: 100
- Activity (SK-OV-3 [10]): 20.6%
- Activity (NCI-H460 [11]): Active
- Activity (SW480 [12]): Dose-dependent effect
- Cmax [13]: 434 ng/mL
- IC50 (WI-38): 3200 nM
- Activity (NCI-H460 [14]): Active
- AUC(0-inf) [15]: 547 ng·h/mL
- Tmax [16]: 0.2 h
- Activity (SK-OV-3 [17]): 0.593%
- Activity (SK-OV-3 [18]): 12.8%
- Activity (SK-OV-3 [19]): 0.808%
- Activity (SK-OV-3 [20]): Dose-dependent effect
- efflux ratio [21]: 1.36
- Activity (SK-OV-3 [22]): 15.4%
- half-life [23]: 2.2 h
- IC50 (SK-OV-3 [2]): 33 nM
- Activity (SK-OV-3 [24]): 30.7%
- Activity (SK-OV-3 [25]): 0.505%
- viability at 3 µM (SK-OV-3 [26]): 67.8%
- IC50 (MDA-MB-231): 37 nM
- half-life [27]: 1.4 h
- viability at 10 µM (SK-OV-3 [28]): 48.1%
- bioavailability [29]: 19.5%
- Vd [30]: 7.63 L/kg
- clearance [31]: 62.5 mL/min/kg
- Activity (SK-OV-3 [32]): 17.1%
- Activity [33]: Non-Toxic
- inhibition [34]: inactive
- Activity (NCI-H460 [35]): Active

Compound: CC(=O)c1ccc(-c2cccc(NC(=O)CCc3cccc4c3B(O)OC4)c2)cc1
- IC50 (HCT-116): 110 nM
- Activity (SW480 [3]): Dose-dependent effect
- Papp B→A [5]: 2.23 ×10⁻⁶ cm/s
- Papp A→B [7]: 3.95 ×10⁻⁶ cm/s
- AUC(0-inf) [8]: 1920 ng·h/mL
- selectivity ratio [1]: 180
- Activity (SW480 [12]): Dose-dependent effect
- Cmax [13]: 373 ng/mL
- IC50 (WI-38): 3700 nM
- AUC(0-inf) [15]: 459 ng·h/mL
- Tmax [16]: 0.25 h
- efflux ratio [21]: 0.56
- half-life [23]: 2 h
- IC50 (SK-OV-3 [2]): 21 nM
- IC50 (MDA-MB-231): 56 nM
- half-life [27]: 0.6 h
- bioavailability [29]: 4.6%
- Vd [30]: 0.882 L/kg
- clearance [31]: 17.5 mL/min/kg
- Activity [33]: Non-Toxic
- inhibition [34]: inactive

Compound: O=C(CCc1ccccc1)Nc1ccccc1
- IC50 (HCT-116): > 100000 nM
- IC50 (WI-38): > 100000 nM
- IC50 (SK-OV-3 [2]): > 100000 nM
- IC50 (MDA-MB-231): > 100000 nM

Compound: CC(=O)c1ccc(-c2cccc(NC(=O)CCc3ccc4c(c3)COB4O)c2)cc1
- IC50 (HCT-116): 63000 nM
- IC50 (WI-38): > 100000 nM
- IC50 (SK-OV-3 [2]): 79000 nM
- IC50 (MDA-MB-231): 66000 nM

Compound: Cc1ccc(NC(=O)CCc2cccc3c2B(O)OC3)cc1Br
- IC50 (HCT-116): 1200 nM
- IC50 (WI-38): 15000 nM
- IC50 (SK-OV-3 [2]): 600 nM
- IC50 (MDA-MB-231): 870 nM
